Test results: PubChem BioAssay AID248 (DTP/NCI, 2004)
Where “and” joins values, the source holds several entries; their conditions need not be identical. Equal entries are not always repeated. Toxic doses and inconclusive results are not listed. Rule as the data show it: active = T/C of 150% or more; inactive = T/C below 125%. Square brackets hold non-standard residues; d marks the D form. Peptide text beside a SMILES is read from it. * marks the point of attachment. ξ: configuration not given here. Cbz = O=C(OCc1ccccc1)*; ξL = CC(C)CC(N)C(=O)O

System: L1210 leukemia ip in BDF1 mice, survival T/C
Experiment: NCI In Vivo Anticancer Drug Screen. Data for tumor model L1210 Leukemia (intraperitoneal) in B6D2F1 (BDF1) mice
Details: endpoint: mean survival time, higher = longer survival
Outline: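 Transplanted-tumor mice were given test agent; controls received vehicle only. Survival readings from the two groups were divided (treated over control).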

[1] = dose: 12.5 mg/kg/injection, schedule: Q01DX009 (ip), vehicle: saline
[2] = dose: 50.0 mg/kg/injection, schedule: Q01DX009 (ip), vehicle: saline
[3] = dose: 50.0 mg/kg/injection, schedule: Q04DX003 (ip), vehicle: saline
[4] = dose: 100.0 mg/kg/injection, schedule: Q01DX001 (ip), vehicle: saline
[5] = dose: 200.0 mg/kg/injection, schedule: Q01DX001 (ip), vehicle: saline
[6] = dose: 400.0 mg/kg/injection, schedule: Q01DX001 (ip), vehicle: saline
[7] = dose: 100.0 mg/kg/injection, schedule: Q04DX002 (ip), vehicle: Klucel (hydroxypropylcellulose) (HPC)
[8] = dose: 200.0 mg/kg/injection, schedule: Q04DX002 (ip), vehicle: Klucel (hydroxypropylcellulose) (HPC)
[9] = dose: 50.0 mg/kg/injection, schedule: Q01DX001 (ip), vehicle: saline
[10] = dose: 10.0 mg/kg/injection, schedule: Q01DX001 (ip), vehicle: saline
[11] = dose: 25.0 mg/kg/injection, schedule: Q04DX002 (ip), vehicle: saline with Tween-80
[12] = dose: 50.0 mg/kg/injection, schedule: Q04DX002 (ip), vehicle: saline with Tween-80
[13] = dose: 100.0 mg/kg/injection, schedule: Q01DX001 (ip), vehicle: saline with Tween-80

Measured: T/C

OCC#CC(O)c1ccccc1 (stereo not given)
inactive: dose: 12.5 mg/kg/injection, schedule: Q01DX001 (ip), vehicle: acetone 94 % of control | [1] 94 % of control | dose: 12.5 mg/kg/injection, schedule: Q04DX003 (ip), vehicle: acetone 97 % of control | dose: 12.5 mg/kg/injection, schedule: Q04DX003 (ip), vehicle: saline 96 % of control | dose: 25.0 mg/kg/injection, schedule: Q01DX001 (ip), vehicle: acetone 97 % of control | dose: 25.0 mg/kg/injection, schedule: Q01DX009 (ip), vehicle: saline 92 % of control | dose: 25.0 mg/kg/injection, schedule: Q04DX003 (ip), vehicle: saline 96 % of control | dose: 50.0 mg/kg/injection, schedule: Q01DX001 (ip), vehicle: acetone 92 % of control | [2] 95 % of control | dose: 50.0 mg/kg/injection, schedule: Q04DX003 (ip), vehicle: acetone 95 % of control | [3] 95 % of control | dose: 75.0 mg/kg/injection, schedule: Q01DX009 (ip), vehicle: saline 98 % of control | dose: 115.0 mg/kg/injection, schedule: Q01DX009 (ip), vehicle: saline 107 % of control

Nc1nc(-c2ccccc2)c(CCCO)c(=O)[nH]1
inactive: dose: 100.0 mg/kg/injection, schedule: Q01DX001 (ip), vehicle: Klucel (hydroxypropylcellulose) (HPC) 102 % of control | dose: 200.0 mg/kg/injection, schedule: Q01DX001 (ip), vehicle: Klucel (hydroxypropylcellulose) (HPC) 102 % of control | dose: 400.0 mg/kg/injection, schedule: Q01DX001 (ip), vehicle: Klucel (hydroxypropylcellulose) (HPC) 98 % of control

CCOC=Nc1ccc(-n2cnc3c(Cl)ncnc32)cc1C
inactive: dose: 100.0 mg/kg/injection, schedule: Q01DX001 (ip), vehicle: carboxymethylcellulose (CMC) 91 % of control | dose: 400.0 mg/kg/injection, schedule: Q01DX001 (ip), vehicle: carboxymethylcellulose (CMC) 98 % of control

CN(C=O)c1ccc(C(=O)NC(CC(=O)O)CC(=O)O)cc1
inactive: [4] 111 % of control | [5] 94 % of control | [6] 103 % of control

COc1cc(Cl)ccc1NC(=O)Oc1ccc(C=O)cc1OC
inactive: [7] 101 % of control | [8] 90 % of control | dose: 400.0 mg/kg/injection, schedule: Q04DX002 (ip), vehicle: Klucel (hydroxypropylcellulose) (HPC) 93 % of control

c1cc2ccc3ccc[n+]4c3c2[n+](c1)CC4
inactive: dose: 75.0 mg/kg/injection, schedule: Q01DX001 (ip), vehicle: saline 103 % of control

c1ccc(C(=NC(c2ccccc2)c2ccccc2)c2ccccc2)cc1
inactive: [9] 98 % of control | [4] 98 % of control | [5] 96 % of control | [6] 98 % of control

CC(CCF)C(N)C(=O)O (stereo not given)
inactive: dose: 3.0 mg/kg/injection, schedule: Q01DX009 (ip), vehicle: saline 98 % of control | dose: 6.0 mg/kg/injection, schedule: Q01DX009 (ip), vehicle: saline 100 % of control | [10] 91 % of control | dose: 12.0 mg/kg/injection, schedule: Q01DX009 (ip), vehicle: saline 102 % of control | [1] 100 % of control | dose: 19.0 mg/kg/injection, schedule: Q01DX001 (ip), vehicle: saline 95 % of control | dose: 37.5 mg/kg/injection, schedule: Q01DX001 (ip), vehicle: saline 113 % of control | dose: 38.0 mg/kg/injection, schedule: Q01DX001 (ip), vehicle: saline 91 % of control

CCCCCCCCCCCC(=O)N(C)C
inactive: dose: 100.0 mg/kg/injection, schedule: Q04DX003 (ip), vehicle: Klucel (hydroxypropylcellulose) (HPC) 109 % of control | dose: 200.0 mg/kg/injection, schedule: Q04DX003 (ip), vehicle: Klucel (hydroxypropylcellulose) (HPC) 111 % of control | dose: 400.0 mg/kg/injection, schedule: Q04DX003 (ip), vehicle: Klucel (hydroxypropylcellulose) (HPC) 109 % of control

COC(=O)CNC(=O)C(CC(C)C)NC(=O)OCc1ccccc1 (stereo not given) (Cbz-[ξL]-Gly-OMe)
inactive: [2] 98 % of control | [3] 94 % of control | [4] 97 % of control | dose: 100.0 mg/kg/injection, schedule: Q01DX009 (ip), vehicle: saline 100 % of control | dose: 100.0 mg/kg/injection, schedule: Q04DX003 (ip), vehicle: saline 91 % of control | [5] 94 % of control | dose: 200.0 mg/kg/injection, schedule: Q01DX009 (ip), vehicle: saline 98 % of control | dose: 200.0 mg/kg/injection, schedule: Q04DX003 (ip), vehicle: saline 96 % of control

C=C(C)C1CCC2(CO)CCC3(C)C(CCC4C5(C)CCC(OC6CCCCO6)C(C)(C)C5CCC43C)C12 (stereo not given)
inactive: [11] 96 % of control | [12] 93 % of control

O=C(Nc1cccc(C(F)(F)F)c1)Nc1ccccc1C(F)(F)F
inactive: dose: 100.0 mg/kg/injection, schedule: Q01DX009 (ip), vehicle: gum acacia 101 % of control | dose: 200.0 mg/kg/injection, schedule: Q01DX009 (ip), vehicle: gum acacia 101 % of control | dose: 400.0 mg/kg/injection, schedule: Q01DX009 (ip), vehicle: gum acacia 104 % of control

CP1(=O)CCC(Br)C1Br (stereo not given)
inactive: dose: 100.0 mg/kg/injection, schedule: Q04DX002 (ip), vehicle: saline with Tween-80 91 % of control | dose: 200.0 mg/kg/injection, schedule: Q04DX002 (ip), vehicle: saline with Tween-80 91 % of control | dose: 400.0 mg/kg/injection, schedule: Q04DX002 (ip), vehicle: saline with Tween-80 98 % of control

O=c1cc(C23CC4CC(CC(C4)C2)C3)[nH]c(=S)[nH]1
inactive: [13] 92 % of control | dose: 200.0 mg/kg/injection, schedule: Q01DX001 (ip), vehicle: saline with Tween-80 108 % of control | dose: 400.0 mg/kg/injection, schedule: Q01DX001 (ip), vehicle: saline with Tween-80 94 % of control

Cc1c(F)cccc1NCC(=O)NN
inactive: [7] 101 % of control | [8] 115 % of control

CCCCCCCCn1nnnc1-c1nnn(C)n1
inactive: dose: 100.0 mg/kg/injection, schedule: Q01DX009 (ip), vehicle: Klucel (hydroxypropylcellulose) (HPC) 106 % of control | dose: 200.0 mg/kg/injection, schedule: Q01DX009 (ip), vehicle: Klucel (hydroxypropylcellulose) (HPC) 104 % of control | dose: 400.0 mg/kg/injection, schedule: Q01DX009 (ip), vehicle: Klucel (hydroxypropylcellulose) (HPC) 101 % of control

N#CC(c1ccccc1)c1ccccc1
inactive: dose: 100.0 mg/kg/injection, schedule: Q01DX001 (ip), vehicle: other 97 % of control | dose: 200.0 mg/kg/injection, schedule: Q01DX001 (ip), vehicle: other 90 % of control | dose: 400.0 mg/kg/injection, schedule: Q01DX001 (ip), vehicle: other 95 % of control

C=CCOC(=N)c1ccccc1
inactive: dose: 50.0 mg/kg/injection, schedule: Q01DX009 (ip), vehicle: saline with Tween-80 93 % of control | dose: 100.0 mg/kg/injection, schedule: Q01DX009 (ip), vehicle: saline with Tween-80 105 % of control | dose: 200.0 mg/kg/injection, schedule: Q01DX009 (ip), vehicle: saline with Tween-80 91 % of control

O=C(COc1ccc(Cl)cc1Cl)Nc1cc(Cl)ccc1Cl
inactive: dose: 100.0 mg/kg/injection, schedule: Q04DX002 (ip), vehicle: gum acacia 95 % of control | dose: 200.0 mg/kg/injection, schedule: Q04DX002 (ip), vehicle: gum acacia 95 % of control | dose: 400.0 mg/kg/injection, schedule: Q04DX002 (ip), vehicle: gum acacia 100 % of control

O=C(/C=C/C(=O)n1ccc2ccccc21)n1ccc2ccccc21
inactive: [9] 95 % of control | [4] 95 % of control | [5] 101 % of control | [6] 95 % of control

CC1C(=O)C=C2CCCC(C)(C)C2(C)C1(O)CCc1ccoc1 (stereo not given)
inactive: [4] 103 % of control | [5] 97 % of control | [6] 107 % of control

O=c1ccsc2ccccc12
inactive: dose: 25.0 mg/kg/injection, schedule: Q01DX001 (ip), vehicle: saline with Tween-80 103 % of control | dose: 50.0 mg/kg/injection, schedule: Q01DX001 (ip), vehicle: saline with Tween-80 97 % of control | [13] 105 % of control and 92 % of control

CC1(C)OCC(C2OC(c3ccccc3)OC(CO)C2O)O1 (stereo not given)
inactive: dose: 12.5 mg/kg/injection, schedule: Q04DX002 (ip), vehicle: saline with Tween-80 87 % of control | [11] 101 % of control | [12] 100 % of control

COc1ccc(N(N=O)C(C)=O)cc1
inactive: dose: 5.0 mg/kg/injection, schedule: Q01DX001 (ip), vehicle: saline 95 % of control | [10] 97 % of control | dose: 20.0 mg/kg/injection, schedule: Q01DX001 (ip), vehicle: saline 106 % of control | dose: 40.0 mg/kg/injection, schedule: Q01DX001 (ip), vehicle: saline 106 % of control
